These results are taken from US20110195924A1, “Methods of Inhibiting the Interaction Between S100P and the Receptor for Advanced Glycation End-Products” (priority 2008, published 2011).

One test deals with NFκB promoter activity. Put plainly: NFκB luciferase reporter assay in BxPC-3 cells. The conditions noted are these: 5 hours; for basal NFκB activity, mean: 0 μM mean 1.4×10^6. Format: cell-based. On the technique in general: A reporter such as luciferase makes a cellular process visible.
A further test relates to BxPC-3 cells. The experiment in a line: BxPC-3 cell proliferation (MTS). In kind it is cell-based. Particulars: 48 hours; for basal cell proliferation, mean: 0 μM mean 1.2. The procedure: BxPC-3 cells were plated at 1.0×10^3 cells/well and treated with 0 μM, 1 μM, 10 μM, and 100 μM of cromolyn, and cell proliferation was analyzed after 48 hours. Means and 95% confidence intervals of three independent experiments performed in triplicate are shown. *, P=0.002; t, P<0.001 versus control. Growth of Panc-1 and BxPC3 pancreatic adenocarcinoma cells was analyzed using MTS reagent (Promega, Madison, Wis.) according to the manufacturer's directions. Purified S100P (100 nM final concentration) with or without cromolyn (100 μM final concentration) was added to Panc-1 cells. Only cromolyn (0-100 μM) was added to BxPC-3 cells, which express endogenous S100P. For both cell models, 1.0×10^3 cells/well were plated in 96-well culture dishes. Cells were treated with S100P, PDGF, or cromolyn, or a combination, followed immediately by treatment with either S100P or PDGF. MTS (20 μL per well) was added to cells at various times, and the mixture was incubated for 1 hour at 37° C. Samples were then read at 490 nm (as O.D. units) on a uQuant-Microplate Spectrophotometer (Bio-Tek Services Inc., Richmond, Va.). The assay was performed three times in triplicate.

A further test concerns the target T1, S100P and RAGE (Homo sapiens, UniProt P25815).
T1 construct: endogenous in cells; host or cells: BxPC-3 cell lysate
T1 sequence (P25815 1-95): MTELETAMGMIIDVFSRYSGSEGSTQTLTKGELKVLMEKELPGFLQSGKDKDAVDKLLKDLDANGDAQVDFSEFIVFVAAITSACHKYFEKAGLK
Put plainly: Co-immunoprecipitation of S100P and RAGE from BxPC-3 cell lysates. Particulars: cromolyn 100 μM. Format: binding. The procedure: Receptor for advanced glycation end products (RAGE) was identified in the immunoprecipitates by immunoblotting with a goat polyclonal anti-RAGE antibody and anti-S100P as an internal control. In the lower panel, one representative blot and densitometric analysis (means and 95% confidence intervals [CIs]) of three independent experiments is shown. *P<0.001, versus IP α-S100P without cromolyn.
For co-immunoprecipitation experiments, BxPC-3 cell lysates were incubated in the absence or presence of cromolyn (100 μM) at 4° C. overnight. S100P was immunoprecipitated using a mouse monoclonal anti-S100P antibody (Transduction Laboratories, San Diego, Calif.) for 6 hours at 4° C. and IgG-immobilized beads (Pierce Biotechnology, Inc. Rockford, Ill.). Antibody-associated proteins were electrophoresed on 10% polyacrylamide gels and electrophoretically transferred to nitrocellulose membranes. Membranes were blocked in PBS/5% milk overnight at 4° C. RAGE was detected using a goat polyclonal anti-RAGE antibody (1:200, Santa Cruz, Santa Cruz, Calif.), and S100P was detected using a goat polyclonal anti-S100P antibody (1:50, R & D systems, Minneapolis, Minn.) by immunoblotting as described in Arumugam, et al., S100P stimulates cell proliferation and survival via receptor for activated glycation end products (RAGE); J. Biol. Chem. 2004 Feb. 13; 279(7):5059-65. Briefly, membranes were incubated in primary antibody for 1 hour at room temperature followed by incubation with horseradish peroxidase-labeled secondary antibody for 30 minutes at room temperature. After a thorough wash in TBS-T buffer (1M Tris-HCL pH 8.3, 3M NaCl, 0.1% Tween-20), antibody-protein complexes were detected by using a chemiluminescent substrate (GE Healthcare Bio-Sciences Corp., Piscataway, N.J.). The intensity of the band was estimated (as density units) using densitometry (GS-250 Molecular Imaging System, Bio-Rad Laboratories, Richmond, Calif.). The experiment was repeated three times. […]

The next test has as its system SW480 cells. Put plainly: SW480 colon cancer cell invasion (matrigel, transwell). Format: cell-based. Particulars: cromolyn 10 μM and 100 μM, 24 hours. The procedure:
SW480 cells were plated on top of a layer of matrigel in a Boyden type chamber (transwell). Media containing 5% FBS was placed in the lower well and the cells were allowed to invade the matrigel layer for 24 hours in the presence of different concentrations of cromolyn.

A further test relates to SKOV3 ovarian cells. Put plainly: SKOV3 ovarian cell viability with taxol. In kind it is cell-based. Particulars: taxol 5 μM, cromolyn 10 μM, 48 hours. The procedure:
SKOV3 ovarian cells were plated and treated with taxol (5 μM) either in the presence or absence of cromolyn (10 μM) for 48 hours. Cell viability was analyzed after 48 hours. *, P<0.05.

The target of a further test is T2, S100P binding with RAGE (Homo sapiens, UniProt P25815).
T2 construct: full-length human S100P cDNA (NM_005980) was cloned into the pTrcHis2 vector; His; made in house; host or cells: bacteria (S100P)
T2 sequence (P25815 1-95): T1 sequence (P25815 1-95)
The experiment in a line: ELISA of S100P binding to RAGE (sRAGE coated plate). The procedure:
After removing un-bound S100P by washing with detergent, the bound S100P and RAGE complex was quantified by adding HRP labeled antibody against S100P. *, P=0.04 C5 1 μM versus cromolyn 5 μM. Two-tailed two-sample (unpaired) Student's t-tests were used to determine P values.
The plate was washed and the amount of bound S100P was quantitated using anti-S100P antibody.
The binding of S100P to RAGE was determined using an ELISA assay. sRAGE was attached to the dish and recombinant S100P (50 ng) was added with or without the indicated concentrations of cromolyn analogs. The plate was washed and the amount of bound S100P was quantitated using anti-S100P antibody.

“Also recorded” adds a separate entry of the source.

As for `O=C(O)c1cc(=O)c2c(OCC(O)COc3cccc4oc(C(=O)O)cc(=O)c34)cccc2o1` [cromolyn, disodium 1,3-bis[(2′-carboxylatochromon-5′-yl)oxy]-2-hydroxypropane], in the test with NFκB promoter activity (cromolyn 10 μM), the “basal NFκB activity, difference versus 0 μM” value is on record as 4.7×10^5 photons/sec and the “basal NFκB activity, mean” value is recorded as 9.4×10^5 photons/sec. Moreover, in the test on NFκB promoter activity (cromolyn 100 μM), the “basal NFκB activity, difference versus 0 μM” value is recorded as 5.9×10^5 photons/sec and the “basal NFκB activity, mean” value was 8.2×10^5 photons/sec. In addition, in the test with BxPC-3 cells (cromolyn 10 μM), the “basal cell proliferation, difference versus 0 μM” value worked out at 0.5 MTS units and the “basal cell proliferation, mean” value is 0.7 MTS units. For the same compound, in the test with BxPC-3 cells (cromolyn 100 μM), the “basal cell proliferation, difference versus 0 μM” value amounted to 0.6 MTS units and the “basal cell proliferation, mean” value was determined as 0.6 MTS units. Moreover, at S100P and RAGE, the “co-immunoprecipitation of S100P and RAGE, difference versus control” value is on record as 25640 density units; the “total amount of S100P immunoprecipitated” value was “no effect”. Moreover, the “co-immunoprecipitation of S100P and RAGE, mean” value at S100P and RAGE (control mean 34040) worked out at 8410 density units. Further, the “invasiveness of SW480 cells” value in the test with SW480 cells is on record as “reduced the invasiveness”. The “cell killing effect of taxol on ovarian cancer cells” value in the test on SKOV3 ovarian cells is reported as “increased the cell killing effect of taxol”. In addition, the “blocking of the interaction / binding of S100P with RAGE” value at S100P binding with RAGE is reported as “blocked; also recorded: able to block”. Besides, the “concentration achieving the same level of S100P inhibition” value on S100P binding with RAGE (FIG. 7) amounted to 5 µM.
